The target in assay [1] is T1, GECFINDER-Phe3 (Aneurinibacillus migulanus, UniProt P0C061).
T1 construct: gene grsA; GrsA-PheA-PCP; cpEGFP inserted in hinge B, linkers VF-QS
T1 sequence (P0C061 1-617): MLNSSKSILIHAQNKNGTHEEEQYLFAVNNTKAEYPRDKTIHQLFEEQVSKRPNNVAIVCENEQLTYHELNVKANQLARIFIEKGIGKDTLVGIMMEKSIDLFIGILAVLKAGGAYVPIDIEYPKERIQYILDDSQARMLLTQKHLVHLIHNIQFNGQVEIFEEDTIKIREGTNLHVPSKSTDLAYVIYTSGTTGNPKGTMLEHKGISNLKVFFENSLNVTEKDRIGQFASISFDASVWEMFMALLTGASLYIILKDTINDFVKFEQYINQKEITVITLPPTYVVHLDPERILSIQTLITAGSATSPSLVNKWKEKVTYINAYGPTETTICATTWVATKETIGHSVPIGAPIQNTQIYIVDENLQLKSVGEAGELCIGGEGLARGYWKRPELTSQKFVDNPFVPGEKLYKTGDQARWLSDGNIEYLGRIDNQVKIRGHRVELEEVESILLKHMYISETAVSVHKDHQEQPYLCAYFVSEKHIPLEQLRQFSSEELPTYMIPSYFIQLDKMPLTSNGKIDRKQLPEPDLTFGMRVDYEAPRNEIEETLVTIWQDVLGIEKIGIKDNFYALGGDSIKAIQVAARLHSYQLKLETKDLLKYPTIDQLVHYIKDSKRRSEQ
The assay can be described thus: Fluorescence dose-response of purified […]-Phe3 with phenylalanine in 100 mM Tris at pH 6.5, room temperature, 1 mM ATP, 2.5 mM MgCl2. The assay is classed as biochemical. Particulars: n = 3. An excerpt:
(§1) As cpEGFP is sensitive to pH, we conducted a dose-response curve and fluorescence intensity analysis of […]-Phe3 at varying pH levels. […] In addition, we expanded the range of ligand-binding domains (LBDs) applicable to […] and attempted optimization of insertion sites for cpEGFP with limited success. Please refer to Supplemental Note 1 for detailed information.
(§2) The study conducted dose–response curve, substrate specificity, and fluorescent spectrum analyses in 100-mM Tris buffer (pH = 7.5), while pH stability experiments were performed in 100-mM Tris buffer at three different pH values (6.5, 7.5, and 8.5) at room temperature. […] Fluorescent signals were detected using a Microplate Reader (Synergy H4, Bio Tek) at an excitation/emission wavelength of 460 nm/510 nm or 480 nm/510 nm. The dose-response curve was determined immediately after the addition of the analyte. The total duration of the measurement was 15 min, with readings taken at one-minute intervals. The dose-response curve was plotted using the fluorescence values obtained after achieving stability in the fluorescence signal. […] The thermal stability of […] was analyzed using the UNcle multifunctional protein stability analysis system. […] Absolute fluorescence quantum yields were measured using an absolute photoluminescence quantum yield spectrometer (FS5, Edinburgh). […]

Assay [2] concerns the target T1, GECFINDER-Phe3. The assay can be described thus: Fluorescence dose-response of purified […]-Phe3 with phenylalanine in 100 mM Tris at pH 8.5, room temperature, 1 mM ATP, 2.5 mM MgCl2. The assay is classed as biochemical. Conditions: n = 3.
Source text: as §1, §2

Take `N[C@@H](Cc1ccccc1)C(=O)O` [Phe, phenylalanine]: the EC50 (commonly the concentration giving half of the maximal effect) on GECFINDER-Phe3 [1] is 2.03 µM; on GECFINDER-Phe3 [2], 2.38 µM.

The record behind these values is paper PMC10590383, “Repurposing conformational changes in ANL superfamily enzymes to rapidly generate biosensors for organic and amino acids” (Nature Communications, 2023).
